Assay results reported in the NIST ThermoML archive (doi:10.1021/je400102p).

Experiment: relative permittivity at various frequencies (dimensionless)
Details: Liquid, Frequency=0.001 MHz, Concentric Cylinder Capacitor

Cc1ccccc1 [toluene]
Details	relative permittivity
303.15 K, 312 kPa	2.37527
303.15 K, 1015 kPa	2.37634
303.15 K, 5058 kPa	2.38253
303.15 K, 10116 kPa	2.38999
303.15 K, 20221 kPa	2.40447
303.15 K, 30317 kPa	2.41824
303.15 K, 40408 kPa	2.43058
303.15 K, 50497 kPa	2.44313
303.15 K, 60603 kPa	2.45469
333.15 K, 402 kPa	2.31204
333.15 K, 995 kPa	2.3134
333.15 K, 5053 kPa	2.32081
333.15 K, 10114 kPa	2.32958
333.15 K, 20221 kPa	2.34637
333.15 K, 30317 kPa	2.36168
333.15 K, 40419 kPa	2.3756
333.15 K, 50510 kPa	2.38883
333.15 K, 60615 kPa	2.40129
363.15 K, 314 kPa	2.24824
363.15 K, 1010 kPa	2.2498
363.15 K, 5053 kPa	2.25867
363.15 K, 10108 kPa	2.26912
363.15 K, 10109 kPa	2.26918
363.15 K, 10111 kPa	2.26913
363.15 K, 20229 kPa	2.28839
363.15 K, 20231 kPa	2.28835
363.15 K, 20232 kPa	2.28831
363.15 K, 30317 kPa	2.30557
363.15 K, 30325 kPa	2.30571
363.15 K, 40408 kPa	2.32135
363.15 K, 50502 kPa	2.33608
363.15 K, 50510 kPa	2.33603
363.15 K, 60614 kPa	2.3499
363.15 K, 60624 kPa	2.34978
393.15 K, 1622 kPa	2.18753
393.15 K, 5063 kPa	2.19687
393.15 K, 5070 kPa	2.19705
393.15 K, 10114 kPa	2.20937
393.15 K, 10123 kPa	2.20955
393.15 K, 20223 kPa	2.23281
393.15 K, 20234 kPa	2.23259
393.15 K, 30331 kPa	2.2527
393.15 K, 40414 kPa	2.27067
